Where a name gives a salt, the structure may show the parent alone. Where a SMILES comes first, the peptide text is derived from it. Bridges are numbered along the chain shown (N, C = ends).
Columns and labels:
Format in all cases: in vivo
growth hormone = assay: Growth hormone level by radioimmunoassay in nembutal-treated rats after subcutaneous injection
Description: (§1) The growth hormone activity of the compound of Example 2 was determined by injecting rats weighing about 150 g. first with nembutal intraperitoneally at a dose of 50 mg/kg then after 5 minutes injecting the rats subcutaneously with a solution of the compound of Example 2 in saline at a dose of 100 m.g. per rat. Blood samples are taken 15 minutes after injection with the compound of Example 2 and the growth hormone level determined by radioimmunoassay.
(§2) The activity of the product of Example 3 was determined by the same technique as the compound of Example 2. The dose given the test animals was 1 mg/kg. Growth hormone concentration was reduced to 28±4 ng/ml from the control level of 75±16 (p<0.01). The insulin concentration in micro units per milliliter was reduced marginally to 168±13 from the control level of 208±11 (p>0.05). The glucagon concentration in pico grams per milliliter was not effected, being 31±3 in the treated animals as opposed to 37±2 in the control animals.

insulin = assay: Insulin concentration in rats, same technique; conditions: dose 1 mg/kg, control level 208±11 (p>0.05), reduced marginally
Description: as §1, §2

glucagon = assay: Glucagon concentration in rats, same technique; conditions: dose 1 mg/kg, control 37±2, not effected
Description: as §1, §2

Compound	growth hormone level (growth hormone; rats about 150 g, nembutal 50 mg/kg i.p., compound s.c. in saline at 100 m.g. per rat, blood 15 minutes after injection, control 212±26 ng/ml)	Growth hormone concentration (growth hormone; rats, dose 1 mg/kg, same technique, control level 75±16 (p<0.01))	insulin concentration (insulin)	glucagon concentration (glucagon)
C[C@@H](O)[C@@H]1NC(=O)[C@H](Cc2ccccc2)NC(=O)[C@H]([C@@H](C)O)NC(=O)[C@H](CCCCN)NC(=O)[C@H](Cc2c[nH]c3ccccc23)NC(=O)[C@H](Cc2ccccc2)NC(=O)[C@H](Cc2ccccc2)NC(=O)[C@H](CC(N)=O)NC(=O)[C@@H](N)CSSC[C@@H](C(=O)O)NC(=O)[C@H](CO)NC1=O [Example 2, L-Cysteinyl-L-asparaginyl-L-phenylalanyl-L-phenylalanyl-L-tryptophyl-L-lysyl-L-threonyl-L-phenylalanyl-L-threonyl-L-seryl-L-cysteine- (1,11 cyclic disulfide), diacetate salt] (H-CNFFWKTFTSC-OH; disulfide 1-11)	103 ± 13 ng/mL			
N-tert-Butyloxycarbonyl-S-p-methoxybenzyl-L-cysteinyl-L-asparaginyl-L-phenylalanyl-L-phenylalanyl-D-tryptophyl-ε-2-chlorobenzyloxycarbonyl-L-lysyl-O-benzyl-L-threonyl-L-phenylalanyl-O-benzyl-L-threonyl-O-benzyl-L-seryl-S-p-methoxybenzyl-L-cysteinyl-hydroxymethyl polystyrene [Example 3]		28 ± 4 ng/mL	168±13 micro units per milliliter	31±3 pico grams per milliliter
